Laboratory results: US7067619B2, “Integrin-binding peptides” (La Jolla Cancer Research Foundation, priority 1993, dated 2006)

Assays:
αvβ1 integrin = assay: Inhibition of αvβ1-mediated cell attachment to fibronectin; assay type: cell-based; conditions: less active, FIG. 6
Text: (§1) Cell lines expressing different integrins were used to examine peptide inhibition of integrin function. A human melanoma cell line, C8161, a fibroblast cell line, WI-38, and an osteosarcoma cell line, MG-63 (described by Seftor et al., Canc. Res., 53:3411–3415 (1993); Vogel et al., J. Biol. Chem., 265:5934–5937 (1990); and Pytela et al. (1985), supra, respectively, each of which is incorporated herein by reference) attach to fibronectin through α5β1 integrin, as does B2/α27, a CHO cell line transfected with human α5. B2/C1, the control parental CHO line (Bauer et al., J. Cell. Biol. 116:477–487 (1992), which is incorporated herein by reference), attaches via […]. CHO cells C11 and NIH 3T3 cells express the endogenous Chinese hamster and mouse α5β1 integrins, respectively. The human melanoma cells, A375-M, attach to fibronectin through both α5β1 and α4β1 integrins (Mould et al., J. Biol. Chem. 265:4020–4024 (1990), which is incorporated herein by reference). CHO cell line B2/v7 express the αvβ1 integrin (Zhang et al., J. Cell. Biol. 122:235–242 (1993), which is incorporated herein by reference). […]
Cell lines expressing fibronectin-binding integrins were used to determine peptide activities against these integrins in the cell attachment assay described by Ruoslahti et al., Meth. […] Bound cells were quantitated by staining with 0.1% amido black. […]

α5β1 integrin [1] = target: T1, α5β1 integrin (Mus musculus, UniProt P09055+P11688); assay: Inhibition of attachment of NIH 3T3 cells to fibronectin; assay type: cell-based; conditions: mouse NIH 3T3 cells
T1 construct: CHO cells C11 and NIH 3T3 cells express the endogenous Chinese hamster and mouse α5β1 integrins, respectively; endogenous in cells; host or cells: NIH 3T3 cells
T1 sequence (P11688 45-898 limits assumed): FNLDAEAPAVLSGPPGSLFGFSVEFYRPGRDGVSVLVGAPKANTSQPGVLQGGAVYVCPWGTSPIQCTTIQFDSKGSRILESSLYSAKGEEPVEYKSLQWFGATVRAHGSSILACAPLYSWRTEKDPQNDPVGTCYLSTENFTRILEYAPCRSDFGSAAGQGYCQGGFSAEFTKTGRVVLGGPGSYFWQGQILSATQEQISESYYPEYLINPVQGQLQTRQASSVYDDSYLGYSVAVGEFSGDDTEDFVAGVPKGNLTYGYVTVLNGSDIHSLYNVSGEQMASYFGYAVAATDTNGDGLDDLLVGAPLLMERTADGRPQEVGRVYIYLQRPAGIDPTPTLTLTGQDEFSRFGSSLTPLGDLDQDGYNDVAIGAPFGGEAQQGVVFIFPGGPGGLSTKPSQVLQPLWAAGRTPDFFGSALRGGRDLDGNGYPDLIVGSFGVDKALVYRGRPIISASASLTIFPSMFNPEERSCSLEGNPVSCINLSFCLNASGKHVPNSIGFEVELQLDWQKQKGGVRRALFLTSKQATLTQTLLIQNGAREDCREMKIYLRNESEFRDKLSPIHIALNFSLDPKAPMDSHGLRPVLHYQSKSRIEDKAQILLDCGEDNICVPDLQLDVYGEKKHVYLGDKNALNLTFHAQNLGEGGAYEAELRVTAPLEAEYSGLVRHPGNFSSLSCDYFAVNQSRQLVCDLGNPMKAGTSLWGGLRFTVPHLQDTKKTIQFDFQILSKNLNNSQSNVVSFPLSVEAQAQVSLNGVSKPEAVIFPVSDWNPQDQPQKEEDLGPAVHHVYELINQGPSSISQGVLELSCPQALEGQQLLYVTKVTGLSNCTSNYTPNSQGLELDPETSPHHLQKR
T1 sequence (P11688 899-1053 partner limits assumed): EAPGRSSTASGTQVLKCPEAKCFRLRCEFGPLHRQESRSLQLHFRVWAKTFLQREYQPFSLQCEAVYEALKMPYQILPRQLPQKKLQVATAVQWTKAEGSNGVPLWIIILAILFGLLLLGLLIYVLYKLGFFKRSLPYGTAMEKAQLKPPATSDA
T1 sequence (P09055 21-798): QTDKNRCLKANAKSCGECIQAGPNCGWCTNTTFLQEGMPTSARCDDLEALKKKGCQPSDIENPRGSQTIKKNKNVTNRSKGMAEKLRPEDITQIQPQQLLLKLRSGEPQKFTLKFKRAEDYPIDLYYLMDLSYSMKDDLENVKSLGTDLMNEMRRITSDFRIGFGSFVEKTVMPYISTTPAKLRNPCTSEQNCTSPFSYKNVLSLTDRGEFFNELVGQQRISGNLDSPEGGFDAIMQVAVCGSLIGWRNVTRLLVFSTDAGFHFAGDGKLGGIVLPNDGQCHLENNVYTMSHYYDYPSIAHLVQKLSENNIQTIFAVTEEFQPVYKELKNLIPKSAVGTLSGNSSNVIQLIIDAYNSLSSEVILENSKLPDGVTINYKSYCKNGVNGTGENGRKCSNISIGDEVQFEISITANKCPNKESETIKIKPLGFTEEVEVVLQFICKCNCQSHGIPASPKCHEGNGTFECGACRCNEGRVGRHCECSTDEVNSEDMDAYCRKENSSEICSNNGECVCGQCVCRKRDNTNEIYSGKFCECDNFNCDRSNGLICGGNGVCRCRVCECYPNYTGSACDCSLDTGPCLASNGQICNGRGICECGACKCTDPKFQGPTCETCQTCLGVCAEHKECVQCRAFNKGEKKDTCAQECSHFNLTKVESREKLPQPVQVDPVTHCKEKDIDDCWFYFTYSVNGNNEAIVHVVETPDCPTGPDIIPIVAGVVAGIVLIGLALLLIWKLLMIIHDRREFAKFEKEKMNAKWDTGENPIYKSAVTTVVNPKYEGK
Text: as §1
(§2) Cell lines expressing fibronectin-binding integrins were used to determine peptide activities against these integrins in the cell attachment assay described by Ruoslahti et al., Meth. […] Bound cells were quantitated by staining with 0.1% amido black.

α5β1 integrin [2] = target: T2, α5β1 integrin (Homo sapiens, UniProt P05556+P08648); assay: Inhibition of 125I-fibronectin binding to α5β1 integrin by competing peptides; conditions: 1 hour, compared with cyclic CRGDC peptide, FIG. 1
T2 construct: The αvβ3, αvβ5 and α5β1 integrins were isolated from human placental extracts; from tissue; host or cells: human placenta
T2 sequence (P08648 42-894 limits assumed): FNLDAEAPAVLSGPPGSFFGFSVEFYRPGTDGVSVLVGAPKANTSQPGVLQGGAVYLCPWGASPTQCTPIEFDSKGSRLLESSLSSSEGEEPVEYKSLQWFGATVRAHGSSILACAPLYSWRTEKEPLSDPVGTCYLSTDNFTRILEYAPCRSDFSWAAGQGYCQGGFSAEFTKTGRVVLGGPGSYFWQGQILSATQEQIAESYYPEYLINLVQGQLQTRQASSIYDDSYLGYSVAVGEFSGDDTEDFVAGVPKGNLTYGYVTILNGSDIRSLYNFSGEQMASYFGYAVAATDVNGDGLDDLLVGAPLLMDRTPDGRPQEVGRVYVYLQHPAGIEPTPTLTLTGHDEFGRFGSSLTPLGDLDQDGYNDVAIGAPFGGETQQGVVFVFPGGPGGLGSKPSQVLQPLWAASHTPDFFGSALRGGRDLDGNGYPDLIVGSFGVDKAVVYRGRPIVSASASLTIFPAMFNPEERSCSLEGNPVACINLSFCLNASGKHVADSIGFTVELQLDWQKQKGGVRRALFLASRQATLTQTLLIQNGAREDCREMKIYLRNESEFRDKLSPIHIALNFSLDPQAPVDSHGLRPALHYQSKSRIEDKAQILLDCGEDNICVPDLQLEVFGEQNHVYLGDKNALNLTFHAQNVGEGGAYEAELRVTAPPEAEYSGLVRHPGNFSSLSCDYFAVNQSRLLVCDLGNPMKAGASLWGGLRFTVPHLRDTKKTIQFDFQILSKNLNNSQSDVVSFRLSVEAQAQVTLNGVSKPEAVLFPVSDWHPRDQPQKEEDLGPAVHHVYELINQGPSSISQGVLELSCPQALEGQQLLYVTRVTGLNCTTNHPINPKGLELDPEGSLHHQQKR
T2 sequence (P08648 895-1049 partner limits assumed): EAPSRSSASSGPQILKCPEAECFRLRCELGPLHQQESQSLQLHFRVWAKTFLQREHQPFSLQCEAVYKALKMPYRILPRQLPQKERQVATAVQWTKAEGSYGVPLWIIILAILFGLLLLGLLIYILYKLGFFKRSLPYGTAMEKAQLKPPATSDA
T2 sequence (P05556 21-798): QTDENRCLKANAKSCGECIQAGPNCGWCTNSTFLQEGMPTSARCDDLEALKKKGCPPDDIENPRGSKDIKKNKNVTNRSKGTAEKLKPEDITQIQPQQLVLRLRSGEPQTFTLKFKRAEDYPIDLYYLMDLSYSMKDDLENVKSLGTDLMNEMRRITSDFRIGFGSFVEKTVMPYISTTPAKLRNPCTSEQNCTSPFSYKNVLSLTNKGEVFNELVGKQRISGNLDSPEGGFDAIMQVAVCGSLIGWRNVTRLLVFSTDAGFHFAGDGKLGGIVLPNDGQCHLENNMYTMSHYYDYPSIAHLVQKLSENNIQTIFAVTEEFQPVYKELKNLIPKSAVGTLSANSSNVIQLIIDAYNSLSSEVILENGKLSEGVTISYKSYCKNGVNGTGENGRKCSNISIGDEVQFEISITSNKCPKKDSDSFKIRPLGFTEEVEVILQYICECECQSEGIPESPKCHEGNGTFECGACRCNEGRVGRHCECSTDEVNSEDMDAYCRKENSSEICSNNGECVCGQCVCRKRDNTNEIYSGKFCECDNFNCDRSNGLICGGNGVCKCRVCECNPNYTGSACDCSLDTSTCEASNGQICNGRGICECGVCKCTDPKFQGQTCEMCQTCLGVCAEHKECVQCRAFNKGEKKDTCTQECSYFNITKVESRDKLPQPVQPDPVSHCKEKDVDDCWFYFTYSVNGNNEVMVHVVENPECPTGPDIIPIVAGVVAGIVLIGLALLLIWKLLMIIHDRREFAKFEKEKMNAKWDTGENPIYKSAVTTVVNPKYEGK
Experimental: In addition, most of the phage-binding activity in the αvβ3 preparation was captured into microliter wells coated with antibodies against the αv or β3 subunits as described previously (Koivunen et al., J. Biol. Chem., 268:20205–10 (1993). The αIIbβ3 integrin was isolated from outdated platelets (Pytela et al., Science, 231:1559–1562 (1986)).
The α5β1 integrin was bound to α5 specific antibody-coated wells by incubating 300 μl of a placental extract per well in TBS buffer containing 0.1 M octylglucoside, 1 mM CaCl2, 1 mM MnCl2 and proteinase inhibitors overnight at 4° C., (Koivunen et al., J. Biol. Chem., 268: 20205–20210 (1993). Alternatively, the α5β1 integrin was directly coated on plastic as described above.
The wells were extensively washed with TBS containing 0.1% NP-40. ^125I-labeled fibronectin (100,000 cpm per well) was incubated in the presence of competing peptides for 1 hour at 25° C. in 100 μl volume of TBS containing 0.1% NP-40 and 1 mM MnCl2, as described by Koivunen et al., J. Biol. Chem. 268: 20205–20210 (1993). After repeated washing, the bound radioactivity was quantitated with a gamma counter.
Initially, […] [SEQ ID NO:12] was examined for its ability to inhibit binding of fibronectin, which is the natural ligand for α5β1. […] Following incubation, the wells were washed and bound radioactivity was determined with a gamma counter.

α5β1 integrin [3] = assay: Cell attachment to immobilized […] peptide (B2/α27 vs B2/Cl cells); assay type: cell-based, human
Text: Cell lines expressing fibronectin-binding integrins were used to determine peptide activities against these integrins in the cell attachment assay described by Ruoslahti et al., Meth. Enzymol., 144:803–831 (1982), which is incorporated herein by reference. Human plasma fibronectin was iodinated as described by Morla and Ruoslahti, J. Cell Biol., 118:421–429 (1992), which is incorporated herein by reference. Vitronectin was obtained from Telios Pharmaceuticals (San Diego, Calif.). […] Peptide was coated on plastic by incubating at 37° C. for 2 hours in phosphate buffered saline containing 0.25% glutaraldehyde to crosslink the peptide. Free binding sites on the plastic were blocked using BSA. Approximately 1×10^5 cells per well were allowed to attach for 1 hour in the presence or absence of competing peptides. Bound cells were quantitated by staining with 0.1% amido black.
In addition to the inhibition of cell attachment to natural ligands, attachment and inhibition assays were performed using the […] [SEQ ID NO:6] peptide as substrate. The microliter well were coated with […] [SEQ ID NO:6] using glutaraldehyde as described above. Briefly, peptide was coated on plastic by incubating at 37° C. for 2 hours in phosphate buffered saline containing 0.25% glutaraldehyde to crosslink the peptide and free binding sites on the plastic were blocked using BSA. The wells were then saturated with BSA followed by the addition of 50,000 B2/α27 or B2/Cl cells in the presence or absence of the indicated inhibitor. […] Bound cells were quantitated by staining with 0.1% amido black.
Target sequence in this assay (P08648 42-894 limits assumed): as the sequence (P08648 42-894 limits assumed) above
Target sequence in this assay (P08648 895-1049 limits assumed): as the sequence (P08648 895-1049 partner limits assumed) above

α5β1 integrin [4] = assay: Inhibition of attachment of CHO C11 cells to fibronectin; assay type: cell-based, Chinese hamster
Text: as §1, §2

## GACRRETAWACGA
αvβ1 integrin
  activity against αvβ1 relative to CELRGDGWC: about 40 ×
  activity against αvβ1 relative to the cyclic RGD peptide: greater than 100 ×
α5β1 integrin [1]
  blocking of attachment of NIH 3T3 cells to fibronectin: could not block
α5β1 integrin [2]
  inhibition of fibronectin binding to α5β1: equally as well as the cyclic CRGDC
α5β1 integrin [3]; B2/α27 compared with B2/Cl cells, FIG. 8
  promotion of cell adhesion by immobilized peptide: promoted α5β1-mediated adhesion
α5β1 integrin [3]; immobilized peptide
  attachment of cell lines lacking these integrins or expressing non-human α5β1 to immobilized peptide: did not attach
α5β1 integrin [3]; inhibitor at 1 mM, FIG. 8
  inhibition of B2/α27 attachment to immobilized RRETAWA-containing peptide: inhibited
α5β1 integrin [4]
  blocking of attachment of CHO C11 cells to fibronectin: could not block
